Measured values taken from US12610952B2, “Antimicrobial compositions and methods” (EVOQ NANO, INC., priority 2014, dated 2026).

System: E. coli, ATCC #51813
Test: Antibacterial efficacy test, ATP Relative Light Unit (RLU) counts
Type: cell-based
Protocol: The NIST nanoparticles are formed by a chemical reduction process that utilizes citrate as reducing and capping agent.
Relative Light Unit (RLU) counts were recorded at 12 hours and 24 hours post treatment. RLU measurements were carried out using a Hygiena SystemSURE Plus V.2 SN067503 RLU meter with Hygenia AquaSnap TOTAL ATP Water Test Cat #U143 Lot #153019. Culturing media was Hardy Diagnostics Buffered Peptone Water Lot #118272. Samples were prepared with the nanoparticle treatments and then diluted with the media to provide the tested concentrations. The test organism (Microbiologics, E. coli, KwikStik, ATCC #51813, Ref #0791 K, Lot #791-1-6) was incubated in fresh Buffered Peptone Water growth media for 24 hours prior to exposure to the nanoparticle treatments.

**Q.** With `O=[N+]([O-])[O-].[Ag+]` [AgNO3 Silver Nitrate, silver nitrate] as the compound, how does the “RLU Counts at 12 Hours Post Exposure” value (0.25 ppm (mg/L)) read?
**A.** Its value is 80 RLU.

**Q.** What about the “RLU Counts at 24 Hours Post Exposure” value (0.25 ppm (mg/L)) of the same compound?
**A.** The value was 25 RLU.

**Q.** What about the “RLU Counts at 12 Hours Post Exposure” value (0.5 ppm (mg/L)) of the same compound?
**A.** The value was 75 RLU.

**Q.** And the “RLU Counts at 24 Hours Post Exposure” value (0.5 ppm (mg/L))?
**A.** The value was 46 RLU.

**Q.** And the “RLU Counts at 12 Hours Post Exposure” value (1.0 ppm (mg/L))?
**A.** The value was 84 RLU.

**Q.** What about the “RLU Counts at 24 Hours Post Exposure” value (1.0 ppm (mg/L)) of the same compound?
**A.** Its value is 30 RLU.
